# Results taken from ChEMBL document CHEMBL1130460, “ADA-Bypass by lipophilic cycloSal-ddAMP pro-nucleotides A second example of the efficiency of the cycloSal-Concept” (Bioorg Med Chem Lett, 1997).
# Key:
# [1] = tested on: CCRF-CEM; assay: Effective concentration of compound against HIV-2 infected CEM/O cells; type: functional, cell-based; details: Homo sapiens
# [2] = Hydrolysis half-life (t1/2) in phosphate buffer at pH 7.3; type: ADME
# [3] = tested on: CCRF-CEM; assay: Cytotoxic activity was evaluated against CEM/O cells; type: functional; details: Homo sapiens
# [4] = tested on: CCRF-CEM; assay: Effective concentration of compound against HIV-1 infected CEM/O cells; type: functional, cell-based; details: Homo sapiens
# [5] = Partition coefficient was measured in 1-octanol/phosphate buffer (pH 6.8); type: physicochemical
# [6] = tested on: CCRF-CEM; assay: Effective concentration of compound against HIV-2 infected CEM/O cells; No activity up to > 250 uM; type: functional, cell-based, Homo sapiens
# [7] = tested on: CCRF-CEM; assay: Cytotoxic activity was evaluated against CEM/O cells; No activity up to > 250 uM; type: functional, cell-based, Homo sapiens
# [8] = tested on: CCRF-CEM; assay: Effective concentration of compound against HIV-1 infected CEM/O cells; No activity up to > 250 uM; type: functional, cell-based, Homo sapiens
EC50 [6],EC50 [8],Structure (SMILES),EC50 [1] [µM],half-life [2] [h],CC50 [3] [µM],EC50 [4] [µM],logD [5],EC50 [7]
–,–,Nc1ncnc2c1ncn2C1CCC(COP2(=O)OCc3ccccc3O2)O1 (stereo not drawn),0.11,8.2,21.9,0.12,0.54,–
Not Active,Not Active,OCc1ccccc1O [SALICYL ALCOHOL],–,–,–,–,–,Not Active
Not Active,Not Active,Cc1cccc(O)c1CO,–,–,–,–,–,Not Active
–,–,Nc1ncnc2c1ncn2[C@H]1CC[C@@H](CO)O1,5.33,–,200,3.67,-0.28,–
–,–,Cc1cccc2c1OP(=O)(OCC1CCC(n3cnc4c(N)ncnc43)O1)OC2 (stereo not drawn),0.035,35.1,9.54,0.03,0.91,–
Not Active,Not Active,COc1ccc(CO)c(O)c1,–,–,–,–,–,Not Active
–,–,COc1ccc2c(c1)COP(=O)(OCC1CCC(n3cnc4c(N)ncnc43)O1)O2 (stereo not drawn),0.09,14,30.4,0.065,0.61,–
